We go through 30 molecules from patent publication US9708312B2, “Dihydropyrimidinoisoquinolinones and pharmaceutical compositions thereof for the treatment of inflammatory disorders (GPR84 antagonists)” (GALAPAGOS NV, priority 2012, dated 2017).

In the assay the target is T1, GPR84 (Homo sapiens, UniProt Q9NQS5).
T1 construct: expressed in transfected cells
Description: GPR84 [35S]GTPγS binding assay, HEPES buffer. It counts as biochemical. Particulars: 3,3′ di indolylmethane at EC80, membranes from stable cell line over expressing GPR84. The procedure: 1.1. Cell Based Assay: GTp-γ S Binding Assay.
The following assay can be used for determination of GPR84 activation.
The assay is performed in a 96 well plate where the following reagents are added. […] In a last step, 30 μL of a mixture consisting of membranes-GTPγS-SpA beads is added [mixture consists of 20 μg/well membranes derived from stable cell line over expressing GPR84 (membranes are pre-incubated with 0.1 μM GDP for 15 min at 4° C.), 0.1 nM [^35S]GTPγS (Perkin Elmer, NEG030) and 0.5 mg/well PVT-WGA SpA beads (Perkin Elmer, RPNQ0001)]. All components are diluted in assay buffer containing 20 mM HEPES pH 7.4; 5 mM MgCl2; 250 mM NaCl; 0.05% BSA; 75 ug/mL saponin Reactions are incubated for 90 min at room temperature followed by centrifugation at 2000 rpm during 15 min. Plates are read on a Topcount reader (Perkin Elmer) immediately after centrifugation (readout time, 1 min/well).
For orientation: Binding of GTPγS marks nucleotide exchange on a G protein.

In general, IC50 refers to the point on the concentration scale where inhibition reaches its midpoint. Read a high IC50 as a need for much substance.

T1 sequence (Q9NQS5 whole entry): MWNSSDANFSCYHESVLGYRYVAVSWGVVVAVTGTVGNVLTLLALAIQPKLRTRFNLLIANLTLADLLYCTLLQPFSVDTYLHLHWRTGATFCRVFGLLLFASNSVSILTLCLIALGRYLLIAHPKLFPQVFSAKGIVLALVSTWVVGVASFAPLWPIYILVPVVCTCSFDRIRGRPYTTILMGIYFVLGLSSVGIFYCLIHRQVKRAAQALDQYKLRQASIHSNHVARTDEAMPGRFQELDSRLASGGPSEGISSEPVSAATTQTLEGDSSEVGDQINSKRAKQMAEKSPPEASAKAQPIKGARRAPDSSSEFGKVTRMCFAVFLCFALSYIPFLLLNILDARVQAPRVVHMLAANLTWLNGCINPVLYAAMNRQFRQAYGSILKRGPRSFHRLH

`O=C1CN(CC#Cc2ccc3c(c2)CCn2c-3cc(OCC3COc4ncccc4O3)nc2=O)C(=O)N1` (stereo not drawn) [compound 176, 1-{3-[2-(2,3-Dihydro-[1,4]dioxino[2,3-b]pyridin-2-ylmethoxy)-4-oxo-6,7-dihydro-4H-pyrimido[6,1-a]isoquinolin-9-yl]-prop-2-ynyl}-imidazolidine-2,4-dione]: the IC50 is 100 to 500 nM.

Regarding `O=c1nc(OCC2CCCO2)cc2n1CCc1cc(OCc3ccc(F)cc3)ccc1-2` (stereo not drawn) [compound 24, 9-(4-fluoro-benzyloxy)-2-(tetrahydro-furan-2-ylmethoxy)-6,7-dihydro-pyrimido[6,1-a]isoquinolin-4-one], the half-maximal inhibitory concentration (IC50) was in the range of 100 to 500 nM.

The molecule `O=c1nc(OCC2COc3ccccc3O2)cc2n1CCc1cc(OCCCN3CCCCC3)ccc1-2` (stereo not drawn) [compound 81, 2-(2,3-dihydro-benzo[1,4]dioxin-2-ylmethoxy)-9-(3-piperidin-1-yl-propoxy)-6,7-dihydro-pyrimido[6,1-a]isoquinolin-4-one] yielded an IC50 of 100 to 500 nM.

Molecule `COc1cccc(-c2ccc3c(c2)CCn2c-3cc(OCC3CCCO3)nc2=O)c1` (stereo not drawn) [compound 100, 9-(3-methoxy-phenyl)-2-(tetrahydro-furan-2-ylmethoxy)-6,7-dihydro-pyrimido[6,1-a]isoquinolin-4-one] gave an IC50 of 100 to 500 nM.

As for `COc1ccc(OCCOc2ccc3c(c2)CCn2c-3cc(OCC3CCCO3)nc2=O)cc1` (stereo not drawn) [compound 42, 9-[2-(4-methoxy-phenoxy)-ethoxy]-2-(tetrahydro-furan-2-ylmethoxy)-6,7-dihydro-pyrimido[6,1-a]isoquinolin-4-one], the IC50 was in the range of 0.01 to 100 nM.

`N#Cc1ccccc1COc1ccc2c(c1)CCn1c-2cc(OCC2CCCO2)nc1=O` (stereo not drawn) [compound 20, 2-[4-oxo-2-(tetrahydro-furan-2-ylmethoxy)-6,7-dihydro-4H-pyrimido[6,1-a]isoquinolin-9-yloxymethyl]-benzonitrile] displayed an IC50 of 0.01 to 100 nM.

On to `Cc1ccccc1COc1ccc2c(c1)CCn1c-2cc(OCC2CCCO2)nc1=O` (stereo not drawn) [compound 39, 9-(2-methyl-benzyloxy)-2-(tetrahydro-furan-2-ylmethoxy)-6,7-dihydro-pyrimido[6,1-a]isoquinolin-4-one], for which the IC50 was 0.01 to 100 nM.

`COC(=O)c1ccc(COc2ccc3c(c2)CCn2c-3cc(OCC3CCCO3)nc2=O)cc1` (stereo not drawn) [compound 26, 4-[4-oxo-2-(tetrahydro-furan-2-ylmethoxy)-6,7-dihydro-4H-pyrimido[6,1-a]isoquinolin-9-yloxymethyl]-benzoic acid methyl ester] yielded a half-inhibitory concentration (IC50) of 100 to 500 nM.

`N#Cc1cccc(-c2ccc3c(c2)CCn2c-3cc(OCC3COc4ncccc4O3)nc2=O)c1` (stereo not drawn) [compound 98, 3-[2-(2,3-dihydro-[1,4]dioxino[2,3-b]pyridin-2-ylmethoxy)-4-oxo-6,7-dihydro-4H-pyrimido[6,1-a]isoquinolin-9-yl]-benzonitrile] gave an IC50 of 0.01 to 100 nM.

With `COc1ccc(-c2ccc3c(c2)CCn2c-3cc(OCC3CCCO3)nc2=O)cc1` (stereo not drawn) [compound 101, 9-(4-methoxy-phenyl)-2-(tetrahydro-furan-2-ylmethoxy)-6,7-dihydro-pyrimido[6,1-a]isoquinolin-4-one], the 50% inhibitory concentration (IC50) fell in the range of 100 to 500 nM.

Regarding `O=c1nc(OCC2CCCO2)cc2n1CCc1cc(OCc3ccccc3)ccc1-2` (stereo not drawn) [compound 7, 9-benzyloxy-2-(tetrahydro-furan-2-ylmethoxy)-6,7-dihydro-pyrimido[6,1-a]isoquinolin-4-one], the IC50 is 0.01 to 100 nM.

In turn, `COc1ccccc1-c1ccc2c(c1)CCn1c-2cc(OCC2CCCO2)nc1=O` (stereo not drawn) [compound 99, 9-(2-methoxy-phenyl)-2-(tetrahydro-furan-2-ylmethoxy)-6,7-dihydro-pyrimido[6,1-a]isoquinolin-4-one] registered an IC50 of 100 to 500 nM.

Molecule `O=c1nc(OCC2CCCO2)cc2n1CCc1cc(-c3cccnc3)ccc1-2` (stereo not drawn) [compound 94, 9-pyridin-3-yl-2-(tetrahydro-furan-2-ylmethoxy)-6,7-dihydro-pyrimido[6,1-a]isoquinolin-4-one] came in with an IC50 of 500 to 1000 nM.

In the case of `O=c1nc(OCC2CCCO2)cc2n1CCc1cc(OCc3ncco3)ccc1-2` (stereo not drawn) [compound 65, 9-(oxazol-2-ylmethoxy)-2-(tetrahydro-furan-2-ylmethoxy)-6,7-dihydro-pyrimido[6,1-a]isoquinolin-4-one], the IC50 fell in the range of 500 to 1000 nM.

Molecule `O=c1nc(OCC2COc3ccccc3O2)cc2n1CCc1cc(OCc3ccccn3)ccc1-2` (stereo not drawn) [compound 28, 2-(2,3-dihydro-benzo[1,4]dioxin-2-ylmethoxy)-9-(pyridin-2-ylmethoxy)-6,7-dihydro-pyrimido[6,1-a]isoquinolin-4-one] displayed an IC50 of 0.01 to 100 nM.

In turn, `O=c1nc(OCC2CCCO2)cc2n1CCc1cc(OCc3ccccc3Cl)ccc1-2` (stereo not drawn) [compound 23, 9-(2-chloro-benzyloxy)-2-(tetrahydro-furan-2-ylmethoxy)-6,7-dihydro-pyrimido[6,1-a]isoquinolin-4-one] gave an IC50 of 100 to 500 nM.

The molecule `O=c1nc(OCC2COc3ncccc3O2)cc2n1CCc1cc(NCc3ncco3)ccc1-2` (stereo not drawn) [compound 153, 2-(2,3-dihydro-[1,4]dioxino[2,3-b]pyridin-2-ylmethoxy)-9-[(oxazol-2-ylmethyl)-amino]-6,7-dihydro-pyrimido[6,1-a]isoquinolin-4-one] gave an IC50 of 0.01 to 100 nM.

Consider `O=c1nc(OCC2CCCO2)cc2n1CCc1cc(OCc3ccncc3)ccc1-2` (stereo not drawn) [compound 13, 9-(pyridin-4-ylmethoxy)-2-(tetrahydro-furan-2-ylmethoxy)-6,7-dihydro-pyrimido[6,1-a]isoquinolin-4-one], for which the IC50 fell in the range of 100 to 500 nM.

As to `CC(C)C1CC(COc2cc3n(c(=O)n2)CCc2cc(C#CC4CC4)ccc2-3)O1` (stereo not drawn) [compound 203, 9-cyclopropylethynyl-2-(4-isopropyl-oxetan-2-ylmethoxy)-6,7-dihydro-pyrimido[6,1-a]isoquinolin-4-one], the IC50 lay in the range of 500 to 1000 nM.

`N#CCNc1ccc2c(c1)CCn1c-2cc(OCC2COc3ncccc3O2)nc1=O` (stereo not drawn) [compound 151, [2-(2,3-dihydro-[1,4]dioxino[2,3-b]pyridin-2-ylmethoxy)-4-oxo-6,7-dihydro-4H-pyrimido[6,1-a]isoquinolin-9-ylamino]-acetonitrile] had a half-inhibitory concentration (IC50) of 100 to 500 nM.

The molecule `CCNC1(C#Cc2ccc3c(c2)CCn2c-3cc(OCC3COc4ncccc4O3)nc2=O)COC1` (stereo not drawn) [compound 201, 2-(2,3-dihydro-[1,4]dioxino[2,3-b]pyridin-2-ylmethoxy)-9-(3-ethylamino-oxetan-3-ylethynyl)-6,7-dihydro-pyrimido[6,1-a]isoquinolin-4-one] showed a concentration for half-maximal inhibition (IC50) of 100 to 500 nM.

As for `CC(C)CC(O)C#Cc1ccc2c(c1)CCn1c-2cc(OCC2COc3ncccc3O2)nc1=O` (stereo not drawn) [compound 185, 2-(2,3-dihydro-[1,4]dioxino[2,3-b]pyridin-2-ylmethoxy)-9-(3-hydroxy-5-methyl-hex-1-ynyl)-6,7-dihydro-pyrimido[6,1-a]isoquinolin-4-one], the IC50 lay in the range of 0.01 to 100 nM.

On to `NC(=O)NCC#Cc1ccc2c(c1)CCn1c-2cc(OCC2COc3ncccc3O2)nc1=O` (stereo not drawn) [compound 175, {3-[2-(2,3-Dihydro-[1,4]dioxino[2,3-b]pyridin-2-ylmethoxy)-4-oxo-6,7-dihydro-4H-pyrimido[6,1-a]isoquinolin-9-yl]-prop-2-ynyl}-urea], for which the IC50 is 0.01 to 100 nM.

`O=c1nc(OCC2COc3ncccc3O2)cc2n1CCc1cc(C3=CCOCC3)ccc1-2` (stereo not drawn) [compound 161, 2-(2,3-dihydro-[1,4]dioxino[2,3-b]pyridin-2-ylmethoxy)-9-(3,6-dihydro-2H-pyran-4-yl)-6,7-dihydro-pyrimido[6,1-a]isoquinolin-4-one]: the IC50 lay in the range of 0.01 to 100 nM.

As to `N#CCCOCC#Cc1ccc2c(c1)CCn1c-2cc(OCC2COc3ncccc3O2)nc1=O` (stereo not drawn) [compound 170, 3-{3-[2-(2,3-dihydro-[1,4]dioxino[2,3-b]pyridin-2-ylmethoxy)-4-oxo-6,7-dihydro-4H-pyrimido[6,1-a]isoquinolin-9-yl]-prop-2-ynyloxy}-propionitrile], the IC50 is 0.01 to 100 nM.

In turn, `O=c1nc(OCC2CCCO2)cc2n1CCc1cc(OCCOc3ccccc3Cl)ccc1-2` (stereo not drawn) [compound 43, 9-[2-(2-chloro-phenoxy)-ethoxy]-2-(tetrahydro-furan-2-ylmethoxy)-6,7-dihydro-pyrimido[6,1-a]isoquinolin-4-one] had an IC50 of 0.01 to 100 nM.

`C=CCOc1ccc2c(c1)CCn1c-2cc(OCC2COc3ncccc3O2)nc1=O` (stereo not drawn) [compound 77, 9-allyloxy-2-(2,3-dihydro-[1,4]dioxino[2,3-b]pyridin-2-ylmethoxy)-6,7-dihydro-pyrimido[6,1-a]isoquinolin-4-one] returned an IC50 of 100 to 500 nM.

Take `O=c1nc(OCC2CCCO2)cc2n1CCc1cc(OCCOc3cccc(Cl)c3)ccc1-2` (stereo not drawn) [compound 44, 9-[2-(3-chloro-phenoxy)-ethoxy]-2-(tetrahydro-furan-2-ylmethoxy)-6,7-dihydro-pyrimido[6,1-a]isoquinolin-4-one]: the half-maximal inhibitory concentration (IC50) is 0.01 to 100 nM.

The molecule `N#CCOc1ccc2c(c1)CCn1c-2cc(OCC2COc3ccccc3O2)nc1=O` (stereo not drawn) [compound 72, [2-(2,3-dihydro-benzo[1,4]dioxin-2-ylmethoxy)-4-oxo-6,7-dihydro-4H-pyrimido[6,1-a]isoquinolin-9-yloxy]-acetonitrile] showed an IC50 of 0.01 to 100 nM.

In turn, `O=c1nc(OCC2COc3ncccc3O2)cc2n1CCc1cc(OCC3CCCCO3)ccc1-2` (stereo not drawn) [compound 179, 2-(2,3-dihydro-[1,4]dioxino[2,3-b]pyridin-2-ylmethoxy)-9-(tetrahydro-pyran-2-ylmethoxy)-6,7-dihydro-pyrimido[6,1-a]isoquinolin-4-one] showed an IC50 of 0.01 to 100 nM.
